row,Compound,melting point [°C]
1,Cc1cc(COc2ccc(S(=O)(=O)NC[C@@H](C(=O)NO)N3CCOCC3)cc2)c2ccccc2n1,138
2,CN(C)C=C1C[N+]([O-])=C(c2ccccc2F)c2cc(Cl)ccc2C1=O,175 to 178
3,Cc1ccc(S(=O)(=O)NN=C2CCCCCCC2)cc1,140 to 143
4,CC(=O)O[C@@H]1[C@H](OC(C)=O)[C@@H](C)O[C@H]1n1c(Cl)nc2c(Cl)c(Cl)c(Cl)cc21,126 to 127
5,CCCC=COC1OC(CO)C(O)C(O)C1NC(C)=O (stereo not drawn),146 to 148
6,CCCOc1c(C=NO)c(=O)n(C)c(=O)n1C,119 to 120
7,Nc1cc(N2CCCNCC2)nc(N)n1,62 to 72
8,CC(C)(C)c1cc(CCc2ccccc2NC(=O)NCCCN2CCOCC2)cc(C(C)(C)C)c1O,138 to 139
9,COc1ccc2c(c1)c(OC(C)C)c(C(=O)O)n2-c1ccccc1,110
10,Cc1oc(-c2ccccc2)nc1COc1ccc(COc2ccc(Cl)cc2CC(=O)O)cc1,160 to 161
11,CN(CC[C@H]1CC[C@H](C(=O)O)CC1)c1nccc(C(F)(F)F)n1,110 to 112
12,O=[N+]([O-])c1cc2c(Nc3cccc(Cl)c3)ncnc2cc1F,223 to 225
13,CCc1nc(C(F)(F)F)c(CN(C(=O)C2CCCc3c(O)cccc32)c2ccc(C(C)C)nc2)s1 (stereo not drawn),164
14,Cc1cc(C2C3=C(CCS3)NC3=C2C(=O)CCC3)ccc1F (stereo not drawn),> 260
15,CC(C)(C)c1nc2cc(Cl)c([N+](=O)[O-])cc2s1,65 to 69
16,N#Cc1c(N2CCCCC2)cc(-c2ccccc2)c2c1-c1ccccc1C2,156
17,CC(=O)C1CCC2C3CCC4CC(O)C(N5CCOC(C)(C)C5)CC4(C)C3C(=O)CC12C (stereo not drawn),163
18,COc1ccc(N2C(=O)C3=C(SCCS3)C2OC(=O)N2CCN(C)CC2)nn1 (stereo not drawn),196 to 198
19,O=C(NCCOc1ccc(-c2ccccc2)cc1)N[C@@H](Cc1ccccc1)C(=O)O,175
20,O=[N+]([O-])C1=Cc2cc3c(cc2OC1)OCO3,139
21,Cc1ccc(F)cc1-c1noc(CCC#Cc2ccccn2)n1,90 to 91
22,Nc1c(Cl)cc(C(O)CNCCCCCCOCCCCc2ccccc2)cc1Cl (stereo not drawn),74 to 76
23,COc1ccc(C2CNC(=O)C2)cc1Br (stereo not drawn),151 to 154
24,C=CCOc1cc(N2C(=O)C3=C(CCCC3)C2=O)ccc1Cl,118 to 120
25,CN1CCN(CC2=NC(NC(=O)OCc3ccccc3)C(=O)N(C(C)(C(N)=O)c3ccccc3)c3ccccc32)CC1 (stereo not drawn),65 to 70

row,Compound,melting point [°C]
1,CC1(C)CC(N)(C(N)=O)CC(C)(C)N1,142 to 144
2,Cn1ncnc1COc1nn2c(-c3ccccc3F)nnc2cc1CC1CCCC1,135 to 137
3,O=C(NC(=O)c1c(Cl)cccc1Cl)Nc1noc2ccccc12,212 to 215
4,COc1cc(-c2ncn(-c3ccc(C(F)(F)F)cc3)c2-c2ccc(N(C)C)cc2)cc(OC)c1OC,215 to 217
5,COc1ccc(CCN(C)c2cc(C)sc2CO)cc1OC,149
6,CCNC(=O)c1ccc(N2CCN(Cc3cc4c(c(OCC)c3)OC(C)C(=O)N4)CC2)c(C)c1 (stereo not drawn),200
7,CS(=O)(=O)Nc1ccccc1OC1CCCCC1=O (stereo not drawn),104 to 106
8,O=C(Nc1ccc2c(c1)CCN2)C(=O)N1CCC(Cc2ccccc2)CC1,75 to 76
9,CCC(C)c1ccc(NS(=O)(=O)c2ccc(N3CCNC3=O)cc2)cc1 (stereo not drawn),157 to 159
10,O=NN(CCCl)C(=O)NCCOC(=O)c1cccnc1,63 to 64
11,NC(=O)N(O)CCCCNC(=O)c1cccc(Oc2ccccc2)c1,131 to 133
12,CC(=O)c1c(-c2ccncc2)[nH]c(-c2ccncc2)c1CO,205 to 207
13,CCCc1c(OCCCOc2ccc3c(c2CCC)OC(CCC(=O)O)(C(=O)O)CC3=O)ccc(C(C)=O)c1O (stereo not drawn),76 to 79
14,CS[C@@H]1CC(=O)N(Cc2ccc(Oc3ccc(F)cc3)nc2)C1,94 to 95
15,Cc1ccc(C(C)(C)C)c(O)c1-c1nc2cc(C#N)ccc2[nH]1,212 to 215
16,CN(C)CCCCCCNC(=O)c1ccc(-c2nnc(CSCCOc3ccccc3)o2)cc1,86 to 93
17,CC(C)(C)c1cc(CCC(CCc2cc(C(C)(C)C)c(O)c(C(C)(C)C)c2)OC(=O)c2ccccc2)cc(C(C)(C)C)c1O,115 to 116
18,CC(C)(C)OC(=O)Oc1cc2c(s1)CCN(C(C(=O)C1CC1)c1ccccc1F)C2 (stereo not drawn),98 to 99
19,CCCCOc1c(N(C)C(=O)OC(C)(C)C)n(CC(C)C)c(=O)c2ccc(-c3cnco3)cc12,152 to 153
20,Clc1ccc(OCC2CO2)c(OCc2ccccc2)c1Cl (stereo not drawn),65
21,O=C(c1ccc(Cl)cc1)C(Br)CCCl (stereo not drawn),73
22,N=C(Nc1ccc(CCN)cc1)c1cccs1,134 to 137
23,COc1ccc(-n2c(=O)[nH]c3c(C(N)=O)nc(-c4cccc(O)c4)nc32)c(C)c1,355 to 357
24,Cc1oc(-c2ccc(C(F)(F)F)cc2)cc1CC(=O)O,123 to 125
25,COc1ccc2c(c1)CC1(CCC(=O)CC1)C21OCCO1,142 to 144

row,Compound,melting point [°C]
1,O=C1N(Cc2ccc(Cl)c(Cl)c2)C(=NCC(F)(F)F)SCN1c1ccccc1,99.1 to 99.6
2,CCOC(=O)c1ccc(NCc2ccccc2)cc1,90 to 93
3,Nc1nc(=Nc2ccccc2)n2c(n1)sc1ccccc12,> 250
4,Cc1cccc(C)c1CNc1cc(Br)cc2c1nc(N(C)C)n2C,157 to 158
5,CCCCNC(=O)c1nc(-c2ccccc2)c(-c2ccc(=O)n(C(C)C)n2)s1,148
6,CC1(C)SC2C(NC(=O)CNC(=O)NC(=N)Cc3ccc(Cl)cc3)C(=O)N2C1c1nnn[nH]1 (stereo not drawn),150 to 162
7,C=CCC(C#N)(C#N)Cc1c(F)c(F)c(F)c(F)c1F,78.2
8,CCOC(=O)NC(CCc1ccccc1)P(C)(=O)O (stereo not drawn),119 to 125
9,Cc1n[nH]c2c(O)ncnc12,340
10,O=C(Br)Cc1ccc(-c2cccc(Cl)c2)cc1,63 to 65
11,Cc1noc(NS(=O)(=O)c2ccccc2-c2ccc(-c3ncco3)cc2CN2C(=O)C(F)(F)c3ccccc32)c1C,112 to 120
12,COC(=O)c1scc(C)c1NC(=O)CC12CC3CC(CC(C3)C1)C2,124
13,CCC(C(O)C(C)C(O)C(C)CCc1ccc(C)c(O)c1C(=O)O)C1OC(CC)(C2CCC(O)(CC)C(C)O2)CC1C (stereo not drawn),151 to 153
14,Cc1c(N2CCN(Cc3ccccc3)C(C)C2)c(F)cc2c(=O)c(C(=O)O)cn(C3CC3)c12 (stereo not drawn),170 to 171
15,CC1Nc2ccc(-c3cccc(Cl)c3)cc2C(C)(C)O1 (stereo not drawn),144 to 146
16,O=C(c1ccc(Cl)cc1)c1cccc2c1CCCC2C(=O)O (stereo not drawn),152 to 154
17,c1ccc(CN2CCN(c3n[nH]c4c3Cc3ccccc3-4)CC2)cc1,256 to 258
18,NS(=O)(=O)c1ccc(NN=C2C(=O)Nc3cc(Br)ccc32)cc1,> 250
19,CC(C)(O)C#Cc1ccccc1,52 to 53
20,Cc1noc(C)c1-c1ncccc1OC1SCC(O)C(O)C1O (stereo not drawn),112
21,CCCC1CCC(c2ccc(-c3cc(F)c(C(F)(F)Oc4cc(F)c(C(F)(F)F)c(F)c4)c(F)c3)c(F)c2)CC1 (stereo not drawn),86
22,O=Cc1csc(N2CCSCC2)n1,69 to 71
23,c1ccc(COc2ccc(NC3Cc4ccccc4C3)cc2)cc1,72 to 75
24,NC[C@@H]1C(=O)N[C@H]1SC(c1ccccc1)(c1ccccc1)c1ccccc1 (relative stereo),139
25,CN1C(=O)C2C3C=CC(C3)C2(c2ccc([N+](=O)[O-])cc2)C1=O (stereo not drawn),163 to 167

row,Compound,melting point [°C]
1,COCc1cccc(C=O)c1NC(=O)CC1c2ccccc2Oc2ccccc21,202 to 203
2,COC(=O)c1c(C(C)C)nc2c(c1-c1ccc(F)cc1)CCC(=O)N2,191
3,CNc1nc(C)c(-c2cn3ccccc3n2)s1,228 to 229
4,NC(=O)c1ccnc(-c2ccc(Oc3ccc(F)cc3)cc2)n1,195 to 197
5,O=C(CCCc1cnoc1-c1ccccc1)Nc1ccc(-n2ccnc2)cc1,132 to 133
6,CCCCc1nn(-c2cc(NC(C)=O)ccc2Cl)c(=O)n1Cc1ccc(-c2cc(CCC)ccc2S(=O)(=O)NC(=O)c2ccccc2Cl)cc1F,144 to 146
7,CCCCCCCOc1ccc(C(=O)CCC(=O)O)cc1,104 to 106
8,CCOC(=O)c1cn(C)c2cnc3cc(F)c(N4CCNC(c5ccc(C)c(C)c5)C4)cc3c2c1=O (stereo not drawn),290
9,CN(Cc1ccccc1)S(=O)(=O)CC(N)=O,124 to 127
10,CCCCS(=O)(=O)Nc1cccc(Oc2cccc3cccnc23)c1,107 to 108
11,CCOC(=O)c1ccc(-c2nc(CCl)c(C)o2)o1,117 to 118
12,O=C1CCC(N2C(=O)c3cccc(NC(=O)COc4ccccc4)c3C2=O)C(=O)N1 (stereo not drawn),236 to 238
13,O=C1CN(c2ccc(Oc3ccccc3)cc2)C(=S)N1c1ccc([N+](=O)[O-])cc1,204
14,c1ccc(C2(N3CCC(n4c(OC5CCNCC5)nc5ccccc54)CC3)CCCCCC2)cc1,114 to 118
15,CCc1ccc(-n2c(-c3cccnc3)nc(SC)c(C#N)c2=O)cc1,207 to 209
16,Cc1cc(C)c(N2CCCc3c2nn(C)c3NC(=O)OC(C)(C)C)c(Cl)c1,171 to 176
17,"CN1C(=O)CCC2(C)c3ccc(NC(=O)c4ccccc4)cc3CCC12 (single isomer, unassigned; (+))",220 to 222
18,CC(C)(C)c1ccccc1N1CCN(C(=O)CCC#N)CC1,109 to 110
19,O=S(=O)(c1ccc(Cl)cc1)C(c1cc(F)ccc1F)c1cc(NCCOCCO)ncc1Cl (stereo not drawn),113 to 115
20,COc1cccc2c(Cl)c(C)c(C)nc12,130
21,Cc1cccc(NC(=O)NC(C(=O)O)C(C)C)c1 (racemic),170
22,CC#Cc1c(C#N)nn(-c2c(Cl)cc(C(F)(F)F)cc2Cl)c1N,226 to 228
23,CCOP(=O)(/C=C/c1cn(-c2ccccc2)nc1OCc1ccc(OCc2csc(N3CCOCC3)n2)c(OC)c1)OCC,93 to 94
